From patent US11498896B2 (The Broad Institute, Inc., priority 2014, dated 2022)

Legend:
D2 receptor = D2 receptor (Homo sapiens (Human), UniProt P14416); assay: D2 radioligand binding assay
human D2R/β-arrestin [1] = target: T1, human D2R/β-arrestin (Homo sapiens (Human), UniProt P14416); assay: Gi/cAMP agonist assay (Lance Ultra cAMP, forskolin); assay type: cell-based; conditions: CHO-K1 cells expressing human D2R/β-arrestin; agonist mode, 2.5 μM forskolin
Experimental: Eu-cAMP tracer solution (10 μl, PerkinElmer, 360 μl of Tracer in 17.64 ml kit buffer) and ULight-anti-cAMP solution (10 μl, 120 μL antibody in 17.88 ml kit buffer) was then added to each well.

human D2R/β-arrestin [2] = target: T1, human D2R/β-arrestin; assay: cell-based; conditions: cAMP Antagonist, CHO-K1 cells expressing human D2R/β-arrestin; antagonist mode, 2.5 μM forskolin and 2.7 nM quinpirole
[3] = tested on: D2R-mediated GSK3 signaling; assay: D2R-mediated GSK3 signaling in HEK293T cells; assay type: cell-based; conditions: HEK293T cells expressing both D2R and DISC1; 10 μM and 30 μM
From the text: Example 90 blocks β-arrestin signaling downstream of D2R and leads to modulation of GSK3 signaling.

human D2R/β-arrestin [4] = target: T1, human D2R/β-arrestin; assay: β-arrestin agonist assay (PathHunter); assay type: cell-based; conditions: CHO-K1 cells expressing human D2R/β-arrestin; agonist mode
Experimental: The detection reagent (9.6 μL, Buffer:Emerald II:Galactor-Star in a 19:5:1 ratio, i.e., 14.06 mL:3.7 mL:0.74 mL=18.5 mL) was then added to the agonist plates.

human D2R/β-arrestin [5] = target: T1, human D2R/β-arrestin; assay: cell-based; conditions: β-arrestin Antagonist, CHO-K1 cells expressing human D2R/β-arrestin; antagonist mode, quinpirole 130 nM
Brain protein binding = assay type: in vitro ADME
mice [6] = assay: Amphetamine induced hyperactivity (AIH); assay type: in vivo; conditions: in comparison with vehicle
Experimental: Amphetamine Induced Hyperactivity Studies
Amphetamine-induced hyperactivity (AIH) was examined in eight identical open-field chambers (16.5″×16″×12″; AccuScan Instruments, Columbus, Ohio). Activity was detected by infrared beam breaks and recorded automatically by VersaMax software (AccuScan). Daily sessions were automatically binned in 5 minute intervals (VersaDat; AccuSacn) for statistical analysis. AIH was run over three consecutive days as follows:
Day 1: Mice were acclimated to the injection procedure by injecting 30 minutes prior to being placed in the chambers (to match the timing of day 3 compound administration). Mice were then placed into the open-field for 20 minutes and then removed for a saline injection (to match the timing of amphetamine administration on day 3). Mice were placed back into the open-field for an additional 30 minutes, at which point the mice were returned to their home cage.
Day 2 was run identically to Day 1, with the exception that the second day lasted for one hour (20 minutes→injection→40 minutes).
Day 3 was the amphetamine challenge day. Mice were pre-treated with D2 antagonist compounds (compound of Example 90) 30 minutes prior to being placed in the open field. After 20 minutes, mice were removed and challenged with amphetamine, following protocols known to one skilled in the art, for example Jones C. […]

mice [7] = assay: Rotarod performance; assay type: in vivo; conditions: 30 mg/kg IP in mice
Experimental: In the test, mice are placed on a horizontally oriented, rotating cylinder (rod) suspended above a cage floor, which is low enough not to injure the animal, but high enough to induce avoidance of fall. The mice naturally try to stay on the rotating cylinder, or rotarod, and avoid falling to the ground. Mice are administered clozaril at 3 mg/kg (test group); or a compound of Formula (I) (either 10 mg/kg or 30 mg/kg or vehicle). The mice have an average weight of 20 grams (as do the mice in all examples herein). The length of time that a given animal stays on this rotating rod is a measure of the animal's balance, coordination, physical condition, and motor-planning. The speed of the rotarod is mechanically driven, and is held constant.

striatal D2/D3 = assay: Positron emission tomography with [11C]raclopride; assay type: in vivo, Male Sprague-Dawley rats; conditions: scans 1 hour after administration; in comparison with clozapine
Experimental: Positron Emission Tomography Studies on Rodents
All animal procedures were performed in accordance with the National Institutes of Health Guide for the Care and Use of Laboratory Animals and were approved by the Massachusetts General Hospital Institutional Animal Care and Use Facility. Male Sprague-Dawley rats (8-14 weeks old, Charles River Labs) were used for the study with animals pair-housed on a diurnal 12:12 light/dark cycle with free access to food and water. […] Respiration of each animal was monitored for the duration of the procedure.
Carbon 11-labeled raclopride ([^11C]RAC) was synthesized from the O-desmethyl RAC precursor and [11C] methyl iodide and subsequently purified by high-performance liquid chromatography as previously described (Farde L, et al. (1985) PNAS, USA 82(11):3863-3867). […] ROI dimensions, placement and striatal D2/D3 binding potential (BPND) were evaluated by graphical analysis using Logan distribution volume ratio (DVR) linearization as previously described (BPND.=DVR-1; Alexoff D, et al. (2002) J Nuc Med 44(5): 815-822; Logan J, et al. (1996) J Cerebral Blood Flow and Metabolism 16(5):[…]).

T1 sequence (P14416 whole entry): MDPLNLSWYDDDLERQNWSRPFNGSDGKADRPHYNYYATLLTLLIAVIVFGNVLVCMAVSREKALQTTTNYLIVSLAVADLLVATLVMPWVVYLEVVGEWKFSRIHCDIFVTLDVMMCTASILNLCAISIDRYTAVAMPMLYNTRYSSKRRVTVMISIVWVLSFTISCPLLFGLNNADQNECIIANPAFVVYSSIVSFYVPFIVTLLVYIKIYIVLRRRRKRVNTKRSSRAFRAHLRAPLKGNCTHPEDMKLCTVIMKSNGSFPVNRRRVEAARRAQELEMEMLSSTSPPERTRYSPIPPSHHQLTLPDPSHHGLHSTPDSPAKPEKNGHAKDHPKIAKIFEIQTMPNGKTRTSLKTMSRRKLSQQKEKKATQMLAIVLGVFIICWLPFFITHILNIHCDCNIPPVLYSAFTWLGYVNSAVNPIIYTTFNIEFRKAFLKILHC
Sequence of D2 receptor (P14416 whole entry): as above

CC1(Oc2ccc(Cl)cc2)CCN(CCOc2ccccc2C(F)(F)F)CC1 [Compound 90, 4-(4-Chlorophenoxy)-4-methyl-1-(2-(2-(trifluoromethyl)phenoxy)ethyl) piperidine]
Ki (D2 receptor): 0.1 to 1 µM | EC50 (human D2R/β-arrestin [1]): < 0.1 µM | IC50 (human D2R/β-arrestin [2]): > 30 µM | block of D2R activation-induced reduction of GSK3-α/β (Ser 21/9) phosphorylation [3]: blocked | EC50 (human D2R/β-arrestin [4]): 1 to 10 µM | IC50 (human D2R/β-arrestin [5]): 0.1 to 1 µM | fraction unbound (Brain protein binding): < 0.001 | attenuation of amphetamine induced hyperactivity (AIH) (mice [6]): dose-dependently attenuates AIH in mice and shows efficacy at 30 mg/kg | motoric side effects (rotarod performance) (mice [7]): does not induce motoric side effects | occupancy in the striatum ([11C]Raclopride PET) (striatal D2/D3): continued high occupancy in the striatum
